Where “and” joins values, the source holds several entries; their conditions need not be identical. Identical values can stand only once. Like-named read-outs stand apart in the source and are kept apart here.
Assays:
HEL cells = assay: Cell proliferation assay (CCK-8), HEL cells; assay type: cell-based, human; conditions: for Inhibition (%): single wells, replicates 1 and 2
In vivo PK study in mice = conditions: for concentration at time point (concentration-time data, Supplementary Fig. 8): individual mice 1-3; for AUCinf / Cmax / T1/2 / Tmax: mice
Protocol: The mice were separately administered to a group of three mice per time point for intravenous (5 mg/kg) or oral administration (5 mg/kg). […] Then the samples were separated by centrifugation and analyzed by LC-MS/MS (XEVO TQ-S) to determine the plasma drug concentrations. The PK parameters were calculated using the noncompartment model with Phoenix WinNonLin v8.0. The animal experimental procedures were approved by the Medicine Research Ethics Committee of Hangzhou Leading Pharmatech Co., Ltd.

SET-2 cells = assay: Cell proliferation assay (CCK-8), SET-2 cells; assay type: cell-based, human
[1] = Chemical stability in DMSO stock solution (HPLC purity); assay type: physicochemical; conditions: mean±SD
Text: compounds were formulated in the solubilizing vehicle (5% DMSO/30% PEG400/65% […]
safety to the mice in the test.
6. What was the sample dissolved in for the in vitro and in vivo experiments? Response: The solvent information for the in vitro and in vivo experiments has been added in the revised manuscript. […]
7. Was the stability of the different compounds assessed and compared to Fedratinib? This is generally a critical point in macrocyclic studies. […]
in DMSO stock solution. Test compounds were incubated at room temperature and 60 ℃, respectively, for 72 h, and their purities (%) were determined using HPLC equipped with a CORTECS C18 column (4.6*50 mm, 2.7 μm particle size) and a UV/VIS detector setting of λ=210 nm. All co mpounds were eluted with the two solvent systems ([…] as organic phase in Method I and CH3OH as organic phase in Method II) at a flow rate of 0.3 ml/min. Each experiment repeated for three times and the results are represented as mean±SD.
Ta b e l R 1 . Comparison of chemical stability of different compounds at room temperature and 60 ℃, respectively.

[2] = tested on: JAK2-STAT signaling pathways in HEL cells; assay: Western blot analysis of JAK2-STAT signaling in HEL cells; assay type: cell-based, human; conditions: 0.3-10 μM, 0.5 h
Protocol: HEL cells were added into six-well plates (2 × 10^6 cells/well) and then put into the incubator (37 °C, 5% CO2). After 24 h, the tested compounds were diluted in RPMI-1640 medium (final DMSO concentration = 0.1%) with different concentrations (0 μM, 0.3 μM, 1 μM, 3 μM, and 10 μM) was added separately into the wells, and incubated for another 0.5 h, then cells were collected and lysed. Proteins from each sample were isolated by SDS-PAGE and transferred to PVDF membrane. The membranes were blocked in 5% milk (TBST) for 1 h at room temperature, and subsequently incubated with the indicated primary antibody in blocking buffer overnight at 4 °C. Primary antibodies were used as follows: p-Y1007/8-JAK2 (#3771, CST, 1:1000), p-Y221-JAK2 (#11150, SAB, 1:500), p-Y705-STAT3 (#11045, SAB, 1:1000), p-Y694-STAT5 (#13386, SAB, 1:2000), STAT3 (10253-2-AP, Proteintech, 1:4000), STAT5 (12071-1-AP, Proteintech, 1:4000), JAK2 (E-AB-70193, Elabscience, 1:2000) and β-Actin (E-AB-20034, Elabscience, 1:10000). Then the membranes were washed with TBST (3 × 5 min), incubated with HRP-conjugated secondary antibody for 1 h at room temperature, washed again, and then exposed by chemiluminescence method using the enhanced ECL immunoblotting system (Tanon, Shanghai, China). All the experiments were repeated in triplicate. Blot bands were quantified by densitometry using Image J software v1.51.

JAK2 = target: T1, JAK2 (Homo sapiens, UniProt O60674); assay: JAK2 enzyme assay (Z'-LYTE kinase assay kit); assay type: biochemical
T1 construct: 0.05–0.42 ng JAK2, 2 μM peptide substrate (Tyr06)
Protocol: JAK kinase activity assays were performed using Z’-LYTETM kinase assay kit (Life Technologies, pv4122). […] The mixture was added into the 384-well microplate, shaken gently, and then incubated at room temperature for 1 h. Subsequently, 5 μL development solution was added to the well for incubating another 1 h. Finally, 5 μL stop reagent was added to stop the reaction. […] IC50 values were calculated using GraphPad Prism v8.0.3, and three parallel experiments were performed.
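For AUCinf in this document: mice dosed intravenously or orally, three animals per time point, plasma drug levels quantified by LC-MS/MS, PK parameters derived by noncompartmental analysis in Phoenix WinNonLin.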
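For Cmax in this document: mice dosed intravenously or orally, three animals per time point, plasma drug levels quantified by LC-MS/MS, PK parameters derived by noncompartmental analysis in Phoenix WinNonLin.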
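For T1/2 in this document: mice dosed intravenously or orally, three animals per time point, plasma drug levels quantified by LC-MS/MS, PK parameters derived by noncompartmental analysis in Phoenix WinNonLin.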
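For concentration at time point (concentration-time data, Supplementary Fig. 8) in this document: mice dosed intravenously or orally, three animals per time point, plasma drug levels quantified by LC-MS/MS, PK parameters derived by noncompartmental analysis in Phoenix WinNonLin.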

T1 sequence (O60674 whole entry): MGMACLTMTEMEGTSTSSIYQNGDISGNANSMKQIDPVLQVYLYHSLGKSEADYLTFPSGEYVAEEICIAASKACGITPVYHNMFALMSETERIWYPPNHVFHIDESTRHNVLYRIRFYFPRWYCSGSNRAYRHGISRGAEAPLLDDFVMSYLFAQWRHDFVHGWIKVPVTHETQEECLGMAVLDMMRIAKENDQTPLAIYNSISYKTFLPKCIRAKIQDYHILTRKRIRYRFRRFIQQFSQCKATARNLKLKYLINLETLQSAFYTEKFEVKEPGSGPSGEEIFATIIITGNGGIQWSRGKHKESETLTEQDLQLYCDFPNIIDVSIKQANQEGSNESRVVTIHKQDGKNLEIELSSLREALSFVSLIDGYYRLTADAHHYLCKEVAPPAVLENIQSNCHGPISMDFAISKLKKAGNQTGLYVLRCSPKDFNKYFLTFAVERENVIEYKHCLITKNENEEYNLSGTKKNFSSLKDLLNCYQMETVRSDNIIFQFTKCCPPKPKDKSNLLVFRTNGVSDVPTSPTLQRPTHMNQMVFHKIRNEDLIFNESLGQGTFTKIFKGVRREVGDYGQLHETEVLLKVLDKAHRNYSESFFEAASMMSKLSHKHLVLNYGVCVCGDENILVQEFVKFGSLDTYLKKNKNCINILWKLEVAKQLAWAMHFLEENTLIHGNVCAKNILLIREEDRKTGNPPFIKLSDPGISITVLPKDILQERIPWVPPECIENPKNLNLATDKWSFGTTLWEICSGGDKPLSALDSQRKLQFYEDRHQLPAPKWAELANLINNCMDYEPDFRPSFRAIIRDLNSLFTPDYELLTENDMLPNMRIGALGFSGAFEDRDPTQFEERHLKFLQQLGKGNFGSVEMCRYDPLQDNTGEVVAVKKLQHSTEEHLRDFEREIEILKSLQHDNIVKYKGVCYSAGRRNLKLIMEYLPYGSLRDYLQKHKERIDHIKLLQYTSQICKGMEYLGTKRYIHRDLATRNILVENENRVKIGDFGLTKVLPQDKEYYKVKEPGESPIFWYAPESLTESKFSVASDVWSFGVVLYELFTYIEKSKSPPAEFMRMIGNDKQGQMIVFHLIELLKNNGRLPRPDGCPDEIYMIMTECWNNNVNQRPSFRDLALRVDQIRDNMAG

In the case of `Cc1cnc2nc1Nc1cccc(c1)COCC=CCOCc1cc(ccc1OCCN1CCCC1)N2` [Compound 3], the “Inhibition (%)” value (HEL cells; HEL cell lines, 0.0977 μM) is reported as 7.532% and 3.479% and 4.355% and 9.373% and 0.491% and 6.308%, the “Inhibition (%)” value (HEL cells; HEL cell lines, 0.1953 μM) is reported as 13.777% and 7.751% and 6.875% and 6.544% and 1.513% and 5.600% and the “Inhibition (%)” value (HEL cells; HEL cell lines, 0.3906 μM) is reported as 19.145% and 12.682% and 3.259% and 5.522% and 6.779% and 5.600%. For the same compound, the “Inhibition (%)” value (HEL cells; HEL cell lines, 0.7813 μM) was 21.994% and 15.749% and 13.120% and 10.788% and 3.085% and 13.618%, the “Inhibition (%)” value (HEL cells; HEL cell lines, 1.5625 μM) was 37.004% and 30.321% and 23.090% and 24.936% and 24.700% and 25.722% and the “Inhibition (%)” value (HEL cells; HEL cell lines, 3.1250 μM, 3.125 µM) was 60.340% and 50.260% and 45.440% and 49.460% and 46.787% and 48.123%. For the same compound, the “Inhibition (%)” value (HEL cells; HEL cell lines, 6.2500 μM, 6.25 µM) was 81.375% and 75.240% and 74.473% and 74.140% and 73.276% and 76.577%, the “Inhibition (%)” value (HEL cells; HEL cell lines, 12.5000 μM, 12.5 µM) was 87.949% and 81.375% and 82.142% and 84.437% and 81.607% and 79.564% and the IC50 (HEL cells; HEL cell lines, mean of 2 replicates, read-out: IC50/μM mean, cellular antiproliferative activity) was 3.05 µM. The IC50 (HEL cells; HEL cell lines, single-replicate fits, read-out: IC50/μM (individual replicates), cellular antiproliferative activity) was 3.33 µM and 2.78 µM, the IC50 (HEL cells; HEL cells, 72 h, mean ± SD, read-out: Cellular Antiproliferative Activity (IC50) HEL) was 3.06 ± 0.39 µM and the “concentration at time point (concentration-time data, Supplementary Fig. 8)” value (shortened to “concentration at time point”) (In vivo PK study in mice; iv 5 mg/kg, 0.5 h, 5 mg/kg) was 112.17 and 96.91 and 108.01. The “concentration at time point” value (In vivo PK study in mice; iv 5 mg/kg, 1 h, 5 mg/kg) was 33.98 and 41.85 and 29.29, the “concentration at time point” value (In vivo PK study in mice; iv 5 mg/kg, 2 h, 5 mg/kg) was 22.85 and 22.08 and 24.61 and the “concentration at time point” value (In vivo PK study in mice; iv 5 mg/kg, 4 h, 5 mg/kg) was 23.46 and 31.4 and 25.29. For the same compound, the “concentration at time point” value (In vivo PK study in mice; iv 5 mg/kg, 8 h, 5 mg/kg) was 17.79 and 10.67 and 14.54, the “concentration at time point” value (In vivo PK study in mice; iv 5 mg/kg, 24 h, 5 mg/kg) was 2.18 and 0 (2×) and the AUCinf (In vivo PK study in mice; iv (5 mg/kg)) was 443.20 ng·h/mL. The Cmax (In vivo PK study in mice; iv (5 mg/kg)) was 351.23 ng/mL, the T1/2 (In vivo PK study in mice; iv (5 mg/kg)) was 0.52 h and the Tmax (In vivo PK study in mice; iv (5 mg/kg)) was 0.083 h. The AUCinf (In vivo PK study in mice; po (5 mg/kg)) was 114.69 ng·h/mL, the Cmax (In vivo PK study in mice; po (5 mg/kg)) was 6.64 ng/mL and the T1/2 (In vivo PK study in mice; po (5 mg/kg)) was 10.07 h. The Tmax (In vivo PK study in mice; po (5 mg/kg)) was 4.00 h, the “concentration at time point” value (In vivo PK study in mice; po 5 mg/kg, 1 h, 5 mg/kg) was 2.46 and 4.26 and 2.81 and the “concentration at time point” value (In vivo PK study in mice; po 5 mg/kg, 2 h, 5 mg/kg) was 3.59 and 4.51 and 5.67. For the same compound, the “concentration at time point” value (In vivo PK study in mice; po 5 mg/kg, 3 h, 5 mg/kg) was 4.59 and 4.64 and 5.68, the “concentration at time point” value (In vivo PK study in mice; po 5 mg/kg, 4 h, 5 mg/kg) was 6.18 and 5.41 and 8.34 and the “concentration at time point” value (In vivo PK study in mice; po 5 mg/kg, 6 h, 5 mg/kg) was 4.85 and 6.09 and 5.97. For the same compound, the “concentration at time point” value (In vivo PK study in mice; po 5 mg/kg, 8 h, 5 mg/kg) was 4.94 and 5.49 and 4.7, the “concentration at time point” value (In vivo PK study in mice; po 5 mg/kg, 24 h) was 0 and the “Inhibition (%)” value (SET-2 cells; SET-2 cell lines, C 0.0977 μM, single wells of replicate 1 and replicate 2) was -27.9889% and -18.4466% and -28.7656% and 0.261% and 11.375% and 10.333%. The “Inhibition (%)” value (SET-2 cells; SET-2 cell lines, C 0.1953 μM, single wells of replicate 1 and replicate 2) was -32.7601% and -23.4397% and -24.3273% and 16.816% and 17.164% and 5.470%, the “Inhibition (%)” value (SET-2 cells; SET-2 cell lines, C 0.3906 μM, single wells of replicate 1 and replicate 2) was -24.5492% and -19.4452% and -33.2039% and 12.880% and 13.806% and 4.892% and the “Inhibition (%)” value (SET-2 cells; SET-2 cell lines, C 0.7813 μM, single wells of replicate 1 and replicate 2) was -42.4133% and -41.7476% and -46.4078% and 9.291% and 13.806% and 8.828%. For the same compound, the “Inhibition (%)” value (SET-2 cells; SET-2 cell lines, C 1.5625 μM, single wells of replicate 1 and replicate 2) was -43.4119% and -41.8585% and -40.6380% and 14.617% and 26.541% and 23.994%, the “Inhibition (%)” value (SET-2 cells; SET-2 cell lines, C 3.1250 μM, single wells of replicate 1 and replicate 2) was -19.0014% and -10.7906% and -7.5728% and 27.931% and 19.711% and 22.952% and the “Inhibition (%)” value (SET-2 cells; SET-2 cell lines, 6.2500 μM, single wells, replicates 1 and 2, 6.25 µM) was 17.1706% and 27.3786% and 29.5978% and 31.635% and 25.499% and 11.259%. The “Inhibition (%)” value (SET-2 cells; SET-2 cell lines, 12.5000 μM, single wells, replicates 1 and 2, 12.5 µM) was 59.6671% and 60.0000% and 61.2205% and 43.097% and 40.782% and 34.993%, the IC50 (SET-2 cells; SET-2 cell lines, mean of 2 replicates, read-out: IC50/μM mean, cellular antiproliferative activity) was 11.1 µM and the IC50 (SET-2 cells; SET-2 cell lines, mean ± sd of 2 replicates, read-out: IC50/μM mean ± sd, cellular antiproliferative activity) was 11.1 ± 0.13 µM. The IC50 (SET-2 cells; SET-2 cell lines, single-replicate fits, read-out: IC50/μM (individual replicates), cellular antiproliferative activity) was 11 µM and 11.2 µM, the IC50 (SET-2 cells; SET-2 cells, 72 h, mean ± SD, read-out: Cellular Antiproliferative Activity (IC50) SET-2) was 11.1 ± 0.13 µM and the “purity after incubation in DMSO stock solution” value (shortened to “purity after incubation”) ([1]; 60 ℃, 0 h) was 99.78±0.07%. For the same compound, the “purity after incubation” value ([1]; 60 ℃, 2 h) was 99.46±0.04%, the “purity after incubation” value ([1]; 60 ℃, 24 h) was 99.64±0.04% and the “purity after incubation” value ([1]; 60 ℃, 48 h) was 99.66±0.06%. The “purity after incubation” value ([1]; 60 ℃, 72 h) was 99.78±0.03%, the “purity after incubation” value ([1]; Room Temperature, 0 h) was 99.68±0.05% and the “purity after incubation” value ([1]; Room Temperature, 2 h) was 99.77±0.01%. The “purity after incubation” value ([1]; Room Temperature, 24 h) was 99.68±0.07%, the “purity after incubation” value ([1]; Room Temperature, 48 h) was 99.63±0.02% and the “purity after incubation” value ([1]; Room Temperature, 72 h) was 99.64±0.10%. For the same compound, the “activation of downstream signaling molecule STAT3 and STAT5” value [2] was “significantly inhibited”, the “phosphorylation of JAK2 at Y1007/8 site” value [2] was “increased” and the “phosphorylation of JAK2 at Y221 site” value ([2]; dose-dependent) was “efficiently blocked”. For the same compound, the IC50 (JAK2; JAK2, 25 μM ATP, mean ± SD, n = 3, read-out: Enzyme Inhibitory Activity (IC50)) was 0.006 µM, the IC50 (JAK2; JAK2 enzyme, mean of 3 replicates, read-out: IC50/μM mean, enzyme inhibitory activity) was 0.006 µM and the IC50 (JAK2; JAK2 enzyme, mean ± SD of 3 replicates, read-out: IC50/μM mean ± SD, enzyme inhibitory activity) was 0.006 ± 0.001 µM. For the same compound, the IC50 (JAK2; JAK2 enzyme, single-replicate fits (replicates 1-3), read-out: IC50/μM (individual replicates), enzyme inhibitory activity) was 0.00662 µM and 0.00532 µM and 0.00569 µM.
